The values below are quoted from earlier work in patent US20190343827A1, “DEUTERATED ANALOGS OF TARIQUIDAR” (Izumi Technology, LLC, priority 2018, published 2019).

The conditions of series [1]: patients with lung, ovarian and cervical cancer.
Series [2] concerns non-small-cell lung cancer. Conditions: co-administration with paclitaxel or carboplatin.

In the case of `COc1cc2c(cc1OC)CN(CCc1ccc(NC(=O)c3cc(OC)c(OC)cc3NC(=O)c3cnc4ccccc4c3)cc1)CC2` [Tariquidar, N-[2-[[4-[2-(6,7-dimethoxy-3,4-dihydro-1H-isoquinolin-2-yl)ethyl]phenyl]carbamoyl]-4,5-dimethoxyphenyl]quinoline-3-carboxamide], the clinical response result with refractory solid tumors (children and adolescents with refractory solid tumors, 29 patients) was “low”. The “clearance of docetaxel and vinorelbine” value in the series on refractory solid tumors (co-administered with tariquidar, compared to historic data in absence of tariquidar) was “reduced”. In addition, in the series with refractory solid tumors (out of 29 patients), the “complete response, number of patients” value is “one” and the “partial response, number of patients” value is given as “two”. The “docetaxel disposition as a result of tariquidar co-administration” value in series [1] is given as “No significant differences”. The “study outcome, toxicity” value in series [2] is “terminated early due to toxicity”.
